Values joined by “and” are separate entries in the source; they are usually repeats but may differ in a detail not shown here. Equal entries are not always repeated.
Tested on: collagenase derived from Clostridium histolyticum
Assay: Inhibition of collagenase (fluorescence assay with fluorogenic peptide substrate)
Format: biochemical
Settings: for Average % inhibition: average of replicates; for Inhibition Rate of collagenase (%): individual replicate
Method: The collagenase inhibitory activity of aqueous and ethanol extracts of Cornus officinalis Sieb. et Zucc., Potentilla glabra Lodd. var. mandshurica (Maxim.) Hand.-Mazz, Amomum kravanh Pierre ex Gagnep, and Bombax ceiba Linnaeus were evaluated. The sample mixture (10 μL), 10 μg/mL of the enzyme (collagenase derived from Clostridium histolyticum) and 50 mM Tricine buffer (pH 7.5), was added to a 96-well microtiter plate. […] After a 10 minute incubation at 37° C., the substrate solution ((7-methoxycoumarin-4-yl)acetyl-L-prolyl-L-leucylglycyl-L-leucyl-[Nβ-(2,4-dinitrophenyl)-L-2,3-diaminopropionyl]-Lalanyl-L-arginine amide) was added to obtain a final concentration of 10 μM, and was allowed to react. The fluorescence values were measured after 0 minutes and 30 minutes incubation at 37° C., at an excitation of 320 nm and an emission of 405 nm, using a fluorescence plate reader (EnSpire, Perkin Elmer, Inc., Japan). EGCG was used as a positive control. The average rates of inhibition can also be appreciated with reference to the Figures.

## O=C(O[C@@H]1Cc2c(O)cc(O)cc2O[C@@H]1c1cc(O)c(O)c(O)c1)c1cc(O)c(O)c(O)c1 [EGCG, epigallocatechin gallate]
Concentration 31.25 μg/ml
  Average % inhibition: 19.10%
  Inhibition Rate of collagenase (%): 18.13% and 16.96% and 22.22%
Concentration 62.5 μg/ml
  Average % inhibition: 29.58%
  Inhibition Rate of collagenase (%): 31.14% and 27.49% and 30.12%
Concentration 125 μg/ml
  Average % inhibition: 39.38%
  Inhibition Rate of collagenase (%): 41.37% and 35.23% and 41.52%
Concentration 250 μg/ml
  Average % inhibition: 54.90%
  Inhibition Rate of collagenase (%): 52.78% and 57.02%
Concentration 500 μg/ml
  Average % inhibition: 80.36%
  Inhibition Rate of collagenase (%): 79.53% and 80.99% and 80.56%
Concentration 1000 μg/ml
  Average % inhibition: 106.38%
  Inhibition Rate of collagenase (%): 107.75% and 106.58% and 104.82%
